Patent US7901893B2, “NPC1L1 (NPC3) and methods of identifying ligands thereof” (Merck Sharp & Dohme Corp., priority 2004, dated 2011)
Entries after “also recorded” stand apart in the source; their conditions may differ.

Legend:
cholesterol absorption = assay: Acute rat cholesterol absorption study; type: in vivo; details: rat acute cholesterol absorption model
Method: To determine if in vitro binding activity is predictive of in vivo efficacy, the enantiomer of ezetimibe glucuronide and several close structural analogues of ezetimibe glucuronide that were tested in the rat membrane binding assay were tested in an acute rat cholesterol absorption study as described in Examples 23-26. […] For the other analogs, the same rank order of potency is observed in the in vitro and in vivo assays, further evidence that the observed binding is due to the target of ezetimibe.

[1] = molecular target: T1, CHO cells expressing SR-B1 (Mus musculus, UniProt Q61009); assay: Cholesterol uptake assay (Example 4); type: cell-based; details: 10 μM ezetimibe
T1 construct: expressed in transfected cells; host or cells: CHO cells
T1 sequence (Q61009 1-509): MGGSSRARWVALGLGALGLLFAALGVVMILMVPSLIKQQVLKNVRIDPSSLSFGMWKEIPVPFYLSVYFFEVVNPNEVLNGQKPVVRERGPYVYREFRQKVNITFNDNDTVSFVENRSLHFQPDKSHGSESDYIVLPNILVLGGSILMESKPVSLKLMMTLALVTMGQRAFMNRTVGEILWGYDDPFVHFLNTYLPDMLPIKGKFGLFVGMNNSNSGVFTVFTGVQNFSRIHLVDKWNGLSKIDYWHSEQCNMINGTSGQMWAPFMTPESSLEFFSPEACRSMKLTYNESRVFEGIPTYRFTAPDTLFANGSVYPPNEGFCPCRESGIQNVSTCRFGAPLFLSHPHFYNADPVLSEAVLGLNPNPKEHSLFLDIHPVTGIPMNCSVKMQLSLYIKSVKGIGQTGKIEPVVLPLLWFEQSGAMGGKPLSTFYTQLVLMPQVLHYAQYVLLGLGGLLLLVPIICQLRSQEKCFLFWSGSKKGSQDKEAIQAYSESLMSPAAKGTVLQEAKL
Method: CHO cells expressing either SR-B1 or three different clones of rat NPC1L1 or one clone of mouse NPC1L1 were starved overnight in cholesterol free media then dosed with [3H]-cholesterol in a mixed synthetic micelle emulsion for 4 min, 8 min, 12 min or 24 m in the absence or presence of 10 µM ezetimibe. The cells were harvested and the lipids were organically extracted. The extracted lipids were spotted on thin-layer chromatography (TLC) plates and resolved within an organic vapor phase. The free cholesterol bands for each assay were isolated and counted in a scintillation counter.

[2] = molecular target: T2, rhesus brush border membrane vesicles (Macaca mulatta, UniProt A0MJA5); assay: biochemical
T2 sequence (A0MJA5 1-1332): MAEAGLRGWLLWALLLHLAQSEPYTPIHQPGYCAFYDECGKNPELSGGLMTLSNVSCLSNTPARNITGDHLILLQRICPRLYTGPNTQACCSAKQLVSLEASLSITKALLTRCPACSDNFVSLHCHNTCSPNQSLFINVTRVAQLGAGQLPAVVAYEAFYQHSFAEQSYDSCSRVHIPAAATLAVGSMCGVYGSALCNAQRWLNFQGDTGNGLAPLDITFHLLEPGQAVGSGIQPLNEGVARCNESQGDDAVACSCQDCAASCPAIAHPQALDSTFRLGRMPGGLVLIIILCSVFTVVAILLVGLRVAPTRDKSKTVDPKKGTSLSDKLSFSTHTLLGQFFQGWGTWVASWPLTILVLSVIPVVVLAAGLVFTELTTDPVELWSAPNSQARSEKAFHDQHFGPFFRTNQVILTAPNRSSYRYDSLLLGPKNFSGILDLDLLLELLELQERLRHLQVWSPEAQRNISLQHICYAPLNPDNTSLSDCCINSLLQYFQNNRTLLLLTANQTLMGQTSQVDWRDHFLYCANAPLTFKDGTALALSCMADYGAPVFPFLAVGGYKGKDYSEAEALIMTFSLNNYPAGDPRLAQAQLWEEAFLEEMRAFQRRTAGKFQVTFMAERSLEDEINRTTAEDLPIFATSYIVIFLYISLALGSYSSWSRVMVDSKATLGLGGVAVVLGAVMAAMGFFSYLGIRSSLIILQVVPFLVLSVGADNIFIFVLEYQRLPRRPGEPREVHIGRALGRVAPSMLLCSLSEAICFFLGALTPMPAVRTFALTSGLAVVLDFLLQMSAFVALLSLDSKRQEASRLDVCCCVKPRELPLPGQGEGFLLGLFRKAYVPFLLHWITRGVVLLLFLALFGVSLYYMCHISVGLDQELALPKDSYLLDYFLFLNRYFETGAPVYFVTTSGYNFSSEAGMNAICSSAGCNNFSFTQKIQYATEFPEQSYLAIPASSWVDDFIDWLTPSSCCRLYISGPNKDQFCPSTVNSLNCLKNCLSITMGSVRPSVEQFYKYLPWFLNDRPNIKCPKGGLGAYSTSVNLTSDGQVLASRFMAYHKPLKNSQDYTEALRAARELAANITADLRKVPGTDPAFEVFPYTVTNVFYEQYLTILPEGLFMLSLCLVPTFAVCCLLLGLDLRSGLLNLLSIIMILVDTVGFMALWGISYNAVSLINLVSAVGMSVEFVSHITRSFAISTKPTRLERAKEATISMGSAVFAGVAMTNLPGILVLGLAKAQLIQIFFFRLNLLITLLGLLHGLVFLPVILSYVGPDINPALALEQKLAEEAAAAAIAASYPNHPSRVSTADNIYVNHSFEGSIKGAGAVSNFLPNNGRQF
Method: The intestines from freshly sacrificed animals were cut into segments, perfused with ice-cold saline buffer (Buffer A: 26 mM NaHCO3, 0.96 mM NaH2PO4, 5 mM HEPES, 5.5 mM glucose, 117 mM NaCl, 5.4 mM KCl, pH=7.4), placed on cold glass plates, opened longitudinally, and the mucosa scraped with glass microscope slips. This mucosa could be used fresh or frozen with identical results. To prepare the membranes, the mucosal scrapings were resuspended in 20 volumes of cold buffer consisting of 300 mM D-mannitol, 5 mM EGTA, 12 mM Tris, pH 7.4 with HCl, and containing 0.1 mM PMSF and a 1% dilution of a protease inhibitor cocktail (set 1, Calbiochem). They were homogenized using a Polytron at medium speed on ice until inspection with a microscope indicated complete cell lysis. Then, solid MgCl2 was added slowly with stirring to a final concentration of 10 mM, and the solution was kept stirring on ice for 15 min. Cellular debris was removed by centrifugation for 15 min at 3,000 g, and the membranes were recovered by centrifugation for 60 min at 48,000 g. The membranes were further rinsed by re-suspension in a buffer containing 50 mM D-mannitol, 5 mM EGTA, and 2 mM Tris at pH 7.40, and centrifugation for 60 min at 48,000 g. The final pellet was resuspended in 120 mM NaCl and 20 mM Tris at pH 7.40 to a concentration of ˜10-20 mg protein/ml, aliquoted, frozen in liquid nitrogen, and stored at −80 C. The activity was stable indefinitely and could be freeze-thawed with minimal loss of activity.
Binding assay. Assays were conducted in 12×75 mm glass test tubes and total volume 20-100 ul. In general, frozen membranes were diluted in buffer A or buffer A containing 0.03% taurocholate and 0.05% digitonin to a final concentration of 0.02 to 5 mg/ml. […] Competing ligands were likewise added as DMSO solutions to give a total 2-10% organic solvent content. […] At least 2 components of buffer A, the bicarbonate and phosphate salts, were later found to be inconsequential and were routinely omitted.
Bound ligand was quantified by single-tube vacuum filtration using GF/C glass fiber filters. […] Filtration was accomplished by adding 2.5 ml of ice cold buffer (120 mM NaCl, 0.1% sodium cholate, and 20 mM MES at pH 6.70) to the assay tube, pouring the mixture through the filter, and then rinsing the tube and filter twice more with another 2×2.5 ml buffer. The filters were counted in 7 ml vials using Packard DM liquid scintillation fluid.
Data analysis. Data from saturation experiments were subjected to a Scatchard analysis, and linear regression was performed to yield the equilibrium dissociation constant (Kd) and maximum receptor concentration (Bmax). […] Data from competition experiments were analyzed and IC50 values determined from Hill plots of the binding data.

SMILES | Ki [2] [nM] | further results
O=C(O)C1OC(Oc2ccc(C3C(CCC(O)c4ccc(F)cc4)C(=O)N3c3ccc(F)cc3)cc2)C(O)C(O)C1O (single isomer, unassigned) [Compound 4] | – | activity in vivo (cholesterol absorption): inactive; also recorded: lack of activity
O=C1[C@H](CC[C@H](O)c2ccc(F)cc2)[C@@H](c2ccc(O)cc2)N1c1ccc(F)cc1 [ezetimibe] | – | [^3H]-cholesterol uptake [1]: inhibited
O=C(O)[C@H]1O[C@@H](Oc2ccc([C@@H]3[C@@H](CC[C@H](O)c4ccc(F)cc4)C(=O)N3c3ccc(F)cc3)cc2)[C@H](O)[C@@H](O)[C@@H]1O [Compound 1, Ezetimibe glucuronide] | 39 | –
CS(=O)(=O)NCC#Cc1ccc(N2C(=O)[C@H](CC[C@H](O)c3ccc(F)cc3)[C@H]2c2ccc(O[C@@H]3O[C@H](C(=O)O)[C@@H](O)[C@H](O)[C@H]3O)cc2)cc1 [Compound 2, 4-[(2S,3R)-3-[(3S)-3 (4-fluorophenyl)-3-hydroxypropyl]-1-(4-{3-[(methylsulfonyl)amino]prop-1-yn-1-yl}phenyl)-4-oxoazetidin-2-yl]phenyl β-D-glucopyranosiduronic acid] | 38 | –
